Source: ChEMBL document CHEMBL3046429, “Synthesis, molecular modeling study, preliminary antibacterial, and antitumor evaluation of N-substituted naphthalimides and their structural analogues” (2013)
Values after ≈ are worked out from the molar mass of the structure shown.

What was measured:
Format in all cases: functional
OVCAR-3 = assay: Growth inhibition of Homo sapiens (human) OVCAR3 cells at 10 uM after 48 hr by coulter counter analysis; conditions: OVCAR-3, 48 h, read-out: GI
UO-31 = assay: Growth inhibition of Homo sapiens (human) UO31 cells at 10 uM after 48 hr by coulter counter analysis; conditions: UO-31, 48 h, read-out: GI
Hs-578T = assay: Growth inhibition of Homo sapiens (human) Hs 578T cells at 10 uM after 48 hr by coulter counter analysis; conditions: read-out: GI
NCI-H226 = assay: Growth inhibition of Homo sapiens (human) NCI-H226 cells at 10 uM after 48 hr by coulter counter analysis; conditions: NCI-H226, 48 h, read-out: GI
T47D = assay: Growth inhibition of Homo sapiens (human) T47D cells at 10 uM after 48 hr by coulter counter analysis; conditions: read-out: GI
Staphylococcus aureus = assay: Antibacterial activity against Staphylococcus aureus assessed as growth inhibition after 24 hr by two fold serial dilution method
SF-268 = assay: Growth inhibition of Homo sapiens (human) SF268 cells at 10 uM after 48 hr by coulter counter analysis; conditions: SF-268, 48 h, read-out: GI
KM12 = assay: Growth inhibition of Homo sapiens (human) KM12 cells at 10 uM after 48 hr by coulter counter analysis; conditions: KM12, 48 h, read-out: GI
NCI-H522 = assay: Growth inhibition of Homo sapiens (human) NCI-H522 cells at 10 uM after 48 hr by coulter counter analysis; conditions: NCI-H522, 48 h, read-out: GI
NCI-H460 = assay: Growth inhibition of Homo sapiens (human) NCI-H460 cells at 10 uM after 48 hr by coulter counter analysis; conditions: NCI-H460, 48 h, read-out: GI
TK-10 = assay: Growth inhibition of Homo sapiens (human) TK10 cells at 10 uM after 48 hr by coulter counter analysis; conditions: TK-10, 48 h, read-out: GI
UACC-62 = assay: Growth inhibition of Homo sapiens (human) UACC62 cells at 10 uM after 48 hr by coulter counter analysis; conditions: UACC-62, 48 h, read-out: GI
DU-145 = assay: Growth inhibition of Homo sapiens (human) DU145 cells at 10 uM after 48 hr by coulter counter analysis; conditions: DU-145, 48 h, read-out: GI
HL-60(TB) = assay: Growth inhibition of Homo sapiens (human) HL-60(TB) cells at 10 uM after 48 hr by coulter counter analysis; conditions: HL-60, 48 h, read-out: GI
BT-549 = assay: Growth inhibition of Homo sapiens (human) BT549 cells at 10 uM after 48 hr by coulter counter analysis; conditions: BT-549, 48 h, read-out: GI
Bacillus subtilis = assay: Antibacterial activity against Bacillus subtilis assessed as growth inhibition after 24 hr by two fold serial dilution method
HCT-15 = assay: Growth inhibition of Homo sapiens (human) HCT15 cells at 10 uM after 48 hr by coulter counter analysis; conditions: HCT-15, 48 h, read-out: GI
MCF7 = assay: Growth inhibition of Homo sapiens (human) MCF7 cells at 10 uM after 48 hr by coulter counter analysis; conditions: MCF7, 48 h, read-out: GI
IGROV-1 = assay: Growth inhibition of Homo sapiens (human) IGROV1 cells at 10 uM after 48 hr by coulter counter analysis; conditions: IGROV-1, 48 h, read-out: GI
U-251 = assay: Growth inhibition of Homo sapiens (human) U251 cells at 10 uM after 48 hr by coulter counter analysis; conditions: U-251, 48 h, read-out: GI
M14 = assay: Growth inhibition of Homo sapiens (human) M14 cells at 10 uM after 48 hr by coulter counter analysis; conditions: M14, 48 h, read-out: GI
A549 = assay: Growth inhibition of Homo sapiens (human) A549/ATCC cells at 10 uM after 48 hr by coulter counter analysis; conditions: A549, 48 h, read-out: GI
SK-MEL-5 = assay: Growth inhibition of Homo sapiens (human) SK-MEL-5 cells at 10 uM after 48 hr by coulter counter analysis; conditions: SK-MEL-5, 48 h, read-out: GI
SW-620 = assay: Growth inhibition of Homo sapiens (human) SW620 cells at 10 uM after 48 hr by coulter counter analysis; conditions: SW-620, 48 h, read-out: GI
OVCAR-8 = assay: Growth inhibition of Homo sapiens (human) OVCAR8 cells at 10 uM after 48 hr by coulter counter analysis; conditions: OVCAR-8, 48 h, read-out: GI
SN12C = assay: Growth inhibition of Homo sapiens (human) SN12C cells at 10 uM after 48 hr by coulter counter analysis; conditions: read-out: GI
LOX IMVI = assay: Growth inhibition of Homo sapiens (human) LOXIMVI cells at 10 uM after 48 hr by coulter counter analysis; conditions: read-out: GI
RPMI-8226 = assay: Growth inhibition of Homo sapiens (human) RPMI8226 cells at 10 uM after 48 hr by coulter counter analysis; conditions: RPMI-8226, 48 h, read-out: GI
NCI-H23 = assay: Growth inhibition of Homo sapiens (human) NCI-H23 cells at 10 uM after 48 hr by coulter counter analysis; conditions: NCI-H23, 48 h, read-out: GI
ACHN = assay: Growth inhibition of Homo sapiens (human) ACHN cells at 10 uM after 48 hr by coulter counter analysis; conditions: read-out: GI
A498 = assay: Growth inhibition of Homo sapiens (human) A498 cells at 10 uM after 48 hr by coulter counter analysis; conditions: A498, 48 h, read-out: GI
SF-295 = assay: Growth inhibition of Homo sapiens (human) SF295 cells at 10 uM after 48 hr by coulter counter analysis; conditions: SF-295, 48 h, read-out: GI
786-0 = assay: Growth inhibition of Homo sapiens (human) 786-0 cells at 10 uM after 48 hr by coulter counter analysis; conditions: 786-0, 48 h, read-out: GI
OVCAR-5 = assay: Growth inhibition of Homo sapiens (human) OVCAR5 cells at 10 uM after 48 hr by coulter counter analysis; conditions: OVCAR-5, 48 h, read-out: GI
Pseudomonas aeruginosa = assay: Antibacterial activity against Pseudomonas aeruginosa assessed as growth inhibition after 24 hr by two-fold serial dilution method
SK-MEL-28 = assay: Growth inhibition of Homo sapiens (human) SK-MEL-28 cells at 10 uM after 48 hr by coulter counter analysis; conditions: SK-MEL-28, 48 h, read-out: GI
EKVX = assay: Growth inhibition of Homo sapiens (human) EKVX cells at 10 uM after 48 hr by coulter counter analysis; conditions: read-out: GI
Malme-3M = assay: Growth inhibition of Homo sapiens (human) MALME-3M cells at 10 uM after 48 hr by coulter counter analysis; conditions: read-out: GI

O=C1c2nccnc2C(=O)N1c1c(Cl)cc(Cl)cc1Cl was tested, and the inhibition of growth at 10 µM (OVCAR-3) was -15.4%, the inhibition of growth at 10 µM (UO-31) was 72.9% and the inhibition of growth at 10 µM (Hs-578T) was 15.3%. For the same compound, the inhibition of growth at 10 µM (NCI-H226) was 9.41%, the inhibition of growth at 10 µM (T47D) was 5.37% and the “-logMIC” value (Staphylococcus aureus) was 4.22. For the same compound, the MIC (Staphylococcus aureus; Staphylococcus aureus, 24 h) was 20 µg/mL (≈ 60.9 µM), the inhibition of growth at 10 µM (SF-268) was 7.64% and the inhibition of growth at 10 µM (KM12) was 10.3%. The inhibition of growth at 10 µM (NCI-H522) was 14.9%, the inhibition of growth at 10 µM (NCI-H460) was -7.91% and the inhibition of growth at 10 µM (TK-10) was -4.45%. It also gave an inhibition of growth at 10 µM (UACC-62) of 1.42%, an inhibition of growth at 10 µM (DU-145) of 18.6% and an inhibition of growth at 10 µM (HL-60(TB)) of 1.42%. It also gave an inhibition of growth at 10 µM (BT-549) of 4.48%, an MIC (Bacillus subtilis) of 20 µg/mL (≈ 60.9 µM) and an inhibition of growth at 10 µM (HCT-15) of 7.09%. The inhibition of growth at 10 µM (MCF7) was 3.64%, the inhibition of growth at 10 µM (IGROV-1) was 7.24% and the inhibition of growth at 10 µM (U-251) was -7.03%. It also gave an inhibition of growth at 10 µM (M14) of 3.32%, an inhibition of growth at 10 µM (A549) of -11.7% and an inhibition of growth at 10 µM (SK-MEL-5) of -6.79%. The inhibition of growth at 10 µM (SW-620) was -7.54%, the inhibition of growth at 10 µM (OVCAR-8) was 11% and the inhibition of growth at 10 µM (SN12C) was 22.7%. The inhibition of growth at 10 µM (LOX IMVI) was -0.26%, the inhibition of growth at 10 µM (RPMI-8226) was 4.32% and the inhibition of growth at 10 µM (NCI-H23) was 0.61%. The inhibition of growth at 10 µM (ACHN) was -0.27%, the inhibition of growth at 10 µM (A498) was 20.9% and the inhibition of growth at 10 µM (SF-295) was -2.42%. It also gave an inhibition of growth at 10 µM (786-0) of 2.39%, an inhibition of growth at 10 µM (OVCAR-5) of -1.7% and an MIC (Pseudomonas aeruginosa) of 20 µg/mL (≈ 60.9 µM). It also gave an inhibition of growth at 10 µM (SK-MEL-28) of -3.36%, an inhibition of growth at 10 µM (EKVX) of 8.2% and an inhibition of growth at 10 µM (Malme-3M) of 21.1%.
